“Also recorded” adds a separate entry of the source. Like-named read-outs stand apart in the source and are kept apart here.

Series [1] concerns mouse model of NASH. Nature of the series: mouse model of NASH and fibrosis induced by streptozocin and high fat diet. Format: in vivo, C59BL/6J mice. To be noted: for NAS score: alone or in combination; for liver enzyme AST / liver enzyme ALP: OCA. As to the method:
We have utilized a well validated mice model in which the NASH and fibrosis was induced by sequential induction of diabetes mellitus and a high fat diet (14). On day 2, C59BL/6J mice were injected with streptozocin, then treated with high fat diet from week 4 until week 9. The intervention treatment started from week 5 until week 9. On week 9, these mice were euthanized.
NAS scores were determined according to the consensus by Nonalcoholic Steatohepatitis Clinical Research Network (13)
Fibrosis scores were determined according to the consensus by Nonalcoholic Steatohepatitis Clinical Research Network (13).

For series [2] the following is noted: cited from earlier work.
The conditions of series [3]: cited from earlier work; for pruritus: placebo 38%.
The conditions of series [4]: cited from earlier work. The source holds these as a separate data set.
For series [5] the following is noted: cited from earlier work. The source holds these as a separate data set.
The conditions of series [6]: recent studies; cited from earlier work.
For series [7] the following is noted: HIV patients with HCV infection; cited from earlier work.
Series [8] deals with CCR5. To be noted: animal model; cited from earlier work.
Where [9] appears, read: FIG. 7B, MK-0812, alone or together.

As for `CO[C@@H]1COCC[C@@H]1N[C@@H]1CC[C@@](C(=O)N2CCc3ncc(C(F)(F)F)cc3C2)(C(C)C)C1` [MK-0812], the NAS score entry in series [1] (FIG. 1B, OCA and MK-0812 (10 mg twice daily)) is on record as “modest reduction of NAS scores; also recorded: little effect”. For the same compound, the “fibrosis evidenced by staining of collagen (liver histology)” value in series [1] (FIG. 2B, OCA and MK-0812) was “reduction of fibrosis”. The “results in the NASH model when a CCR2 antagonist was used instead of MVC” value in series [1] (FIG. 3B to 7B) is given as “Comparable results”. In series [1] (FIG. 3B, OCA and MK-0812, combination with half dose OCA and MK-0812 10 mg twice daily), the fibrosis score result is recorded as “reduction of fibrosis score”. In addition, in series [1] (FIG. 4B, OCA and MK-0812), the liver inflammation result was “reduction of liver inflammation”. For the same compound, the hepatocyte ballooning score entry in series [1] (FIG. 5B, OCA and MK-0812) is on record as “reduction of hepatocyte ballooning score”. The steatosis result in series [1] (FIG. 6B, full dose OCA, MK-0812 alone) is given as “no apparent effect on steatosis”. Also, the “liver enzyme AST” value in series [1] (setting [9]) is given as “not observed”.
Turning to `CC[C@H]1[C@@H](O)[C@@H]2[C@H](CC[C@]3(C)[C@@H]([C@H](C)CCC(=O)O)CC[C@@H]23)[C@@]2(C)CC[C@@H](O)C[C@@H]12` [OCA, 6 α-ethyl-chemodeoxycholic acid], the “liver enzyme AST” value in series [1] (FIG. 7A, MVC, alone or together) is “elevation in AST and ALP liver enzymes; also recorded: elevation of the liver enzyme AST”; in series [1] (setting [9]) it was “elevation of the liver enzyme AST”. Also, the “liver enzyme ALP” value was “elevation in AST and ALP liver enzymes; also recorded: elevation of the liver enzyme ALP” in series [1] (FIG. 8A, MVC, alone or together); “elevation of the liver enzyme ALP” in series [1] (FIG. 8B, MK-0812). The “exposure-adjusted incidence for all serious and otherwise clinically significant liver-related adverse reactions and isolated elevations in liver biochemical test” value was 5.2 per 100 patient exposure years (PEY) in series [2] (10 mg group, placebo 2.4); 19.8% in series [2] (25 mg group); 54.5% in series [2] (50 mg group). Moreover, the results for the pruritus in series [3] (10 mg once daily) and in series [3] (titration regimen) were 56% and 70%, respectively. The HDL result in series [3] (dose related) is listed as “dose related reduction in HDL; also recorded: reduction of HDL”. Moreover, the severe pruritus in series [3] (patients receiving OCA) is on record as 19-23%. For the same compound, the frequency of pruritus entry in series [3] (reported frequency) is recorded as “up to 80%”. In addition, the bile duct histology result in series [4] (26-week oral, rats) is on record as “bile duct hyperplasia”. In series [4] (26-week oral, rats), the clinical chemistry parameters entry is “increases in ALT, AST and ALP”. Besides, the liver weight result in series [4] (26-week oral, rats) is “increased liver weight”. In addition, in series [4] (rat, in vivo), the “safety margin relative to recommended human dose” value was 2.3 fold. Also, the ALT levels result in series [5] (9-month oral, dogs) is on record as “elevated ALT levels”. The “clinical signs of toxicity that could be associated with liver function” value in series [5] (dog, in vivo, po) was “yellow discoloration of skin, mucous membrane, and eyes”.
Consider `CCCCOCCOc1ccc(-c2ccc3c(c2)/C=C(/C(=O)Nc2ccc([S@@+]([O-])Cc4cncn4CCC)cc2)CCCN3CC(C)C)cc1` [cenicriviroc], for which, in series [6], the “effect on NASH” value is given as “marginal effect on NASH” and the effect on fibrosis result was “relatively more significant effect on fibrosis”.
For the compound maraviroc [MVC], the NAS score entry in series [1] (FIG. 1A, maraviroc 45 mg/kg once daily orally, OCA 30 mg/kg once daily, 4 wks) is listed as “modest reduction of NAS scores”; in series [1] (FIG. 1A, maraviroc 45 mg/kg once daily orally, OCA 30 mg/kg once daily, 4 wks, listed as maravoric), “limited effect on the NAS score”. In addition, the “fibrosis evidenced by staining of collagen (liver histology)” value in series [1] (FIG. 2A, maraviroc 45 mg/kg, OCA 30 mg/kg once daily, 4 wks) was “reduction of fibrosis”; in series [1] (FIG. 2A, maraviroc 45 mg/kg, OCA 30 mg/kg once daily, 4 wks, listed as maraviroc), “effective in reducing fibrosis; also recorded: more effective than OCA in reducing fibrosis”. The fibrosis score result in series [1] (FIG. 3A, maraviroc 45 mg/kg, OCA 30 mg/kg once daily, 4 wks) is “reduction of fibrosis score”. In addition, the liver inflammation result in series [1] (FIG. 4A, maraviroc 45 mg/kg, OCA 30 mg/kg once daily, 4 wks) is recorded as “reduction of liver inflammation”. The hepatocyte ballooning score result in series [1] (FIG. 5A, maraviroc 45 mg/kg, OCA 30 mg/kg once daily, 4 wks) was “reduction of the hepatocyte ballooning score”. Besides, the steatosis result in series [1] (FIG. 6A, maraviroc 45 mg/kg, OCA 30 mg/kg once daily, 4 wks) is “marginal effect on steatosis”. For the same compound, in series [7], the liver fibrosis result was “Reducing liver fibrosis has been observed”. The “NAS score and fibrosis” value in series [8] was “effective in an animal model for reducing NAS score and fibrosis”.

The values are drawn from US11160813B2, “Combination therapy for nonalcoholic steatohepatitis (NASH) and liver fibrosis” (Modunex Bio Corp., priority 2016, dated 2021).
